“Also recorded” adds a separate entry of the source.
Experiments:
Format in all cases: in vivo
[1] = system: hM4Di-expressing Vglut2+ spinal interneurons; assay: Colorectal distension (CRD) and c-Fos analyses after chemogenetic silencing; details: T3 SCI Vglut2-Cre mice injected with AAV-hSyn-DIO-hM4Di-mCherry; CNO 1.0 mg/kg i.p. 30 min before CRD, day 28 post-injury, vs vehicle
Protocol: Colorectal distension was induced as previously reported3, 12, 13 with minor modification. A 4-French, 60 mm balloon-tipped catheter (Swan-Ganz monitoring catheter model 116F4; Edwards Life Sciences) was inserted 1.5 cm into the rectum before securing the catheter to the tail with surgical tape. The balloon was inflated with 0.2 ml of air for 30 sec then deflated 60 sec. This 90 sec cycle was repeated for 90 min. Mice were perfused 30 min after the final cycle of inflation. The number of c-Fos^+ cells were counted and analyzed in 2 representative horizontal spinal cord sections at T4-9 level from multiple SCI animals with or without CRD stimulation. The number of animals analyzed were: uninjured with or without CRD, n=3/group; T3 SCI (day 28) without CRD, n=3; T3 SCI (day 28) with CRD, n=5; Vglut2-Cre; cc-EGFP+T3 SCI (day 28) with CRD, n=3; Chat-Cre; cc-EGFP+T3 SCI (day 28) with CRD, n=3 (FIG. 7). To evaluate the effects of DREADD in mice with CRD-induced activation of visceral-sympathetic reflex, CNO (1.0 mg/kg body weight, i.p.; Sigma) or vehicle saline was injected into Vglut2-Cre+T3SCI+AAV8-hSyn-DIO-hM4D(Gi)-mCherry mice at day 28 post-injury, 30 min before the induction of CRD (n=3 each) (FIG. 9).

[2] = system: Vglut2+ spinal interneurons expressing hM4Di DREADD; assay: DREADD experiment: T3 SCI immune suppression, Vglut2-Cre mice; details: T3 SCI Vglut2-Cre mice with AAV8-hSyn-DIO-hM4D(Gi)-mCherry; CNO 1 mg/kg 2x/day, day 14-27 post-injury; day 28
Protocol: (§1) AAV8-hSyn-DIO-hM4Di-mCherry (AAV8-hSyn-DIO-hM4D(Gi)-mCherry; 7×10^12 vg/ml; UNC Vector Core) was injected into T5 and 7 levels of the spinal cord of Vglut2-Cre, Chat-Cre, or WT mice at P14 (0.8 μl/site, 0.25 mm lateral, 0.5 mm in depth). […] T3 SCI was induced at 8 weeks old, and then CNO (1.0 mg/kg body weight, i.p.; Sigma) was injected twice per day from day 14 to 27 post-injury (FIG. 3b). Small cohorts of mice from each colony were used as they reached the appropriate age for experimentation. […]
(§2) Spleens were harvested in Flow Cytometry Staining Buffer (eBioscience) and cell suspensions were made by expressing spleen tissue through a cell strainer using the plunger of a 10 ml syringe. […] Splenocytes were counted on a hemocytometer and 5×10^5 cells were incubated with Fc-block (anti-mouse-CD16/CD32 antibody; eBioscience). […] Splenocytes (10,000 events/sample) were analyzed using a FACSCanto flow cytometer with FACSDiva software (BD Biosciences). […] The number of each subset was calculated as the percentage of labeled cells multiplied by the total number of splenocytes.

[3] = system: Chat+ spinal interneurons expressing hM4Di DREADD; assay: DREADD experiment: T3 SCI immune suppression, Chat-Cre mice; details: T3 SCI Chat-Cre mice with AAV8-hSyn-DIO-hM4D(Gi)-mCherry; CNO 1 mg/kg 2x/day, day 14-27 post-injury
Protocol: as §1, §2

## C[N+]1([O-])CCN(C2=Nc3cc(Cl)ccc3Nc3ccccc32)CC1 [CNO, clozapine-N-oxide]
[1]
  c-Fos expression elicited by colorectal distension (silencing of hM4DGi+ spinal neurons): reduces c-Fos expression; also recorded: significant silencing
[2]
  Splenic atrophy: reversed
  Total numbers of splenocytes, including CD4+ and CD8+ T cells and B220+ B cells: restored to pre-injury levels
[3]
  Immune protection: modest non-significant immune protection

— patent US20170266319A1, “METHODS AND COMPOSITIONS FOR TREATING CONDITIONS ASSOCIATED WITH SPINAL CORD INJURY” (priority 2016, published 2017)
